Experimental data published in patent US20140162285A1, “Methods of Modulating Vesicular Trafficking” (The General Hospital Corporation, priority 2009, published 2014).
“Also recorded” adds a separate entry of the source. Peptide text beside a SMILES is read from it. * marks the point of attachment. Biotin = O=C1N[C@H]2[C@H](CS[C@H]2CCCCC(=O)*)N1

Biological target: T1, Sec7-domain of ARNO (Homo sapiens, UniProt Q99418)
T1 construct: iii) 61-252aa, Sec7 domain; GST (N, cleaved yes); made in house; host or cells: E. coli BL21(DE3)
T1 sequence (Q99418 61-252): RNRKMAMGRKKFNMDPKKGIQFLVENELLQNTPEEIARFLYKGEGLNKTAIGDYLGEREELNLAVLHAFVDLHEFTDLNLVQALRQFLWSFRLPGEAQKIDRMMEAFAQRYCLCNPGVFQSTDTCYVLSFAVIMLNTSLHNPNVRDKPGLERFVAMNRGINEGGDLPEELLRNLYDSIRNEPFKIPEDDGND
Experiment: a2N-derived peptide pull-down with GST-Sec7 domain
Assay type: binding
Settings: GST-Sec7-6His
Procedure: FIGS. 5A-C are a set of three images of Western blots showing the identification of interaction motif of a2N that is involved in specific binding with the Sec7 domain of ARNO. 5A, The catalytic Sec7 domain of ARNO interacts with two a2N-derived peptides, a2N-01 and a2N-03, in pull-down experiments. The peptide pull-down assay was performed with six a2N-derived interaction peptides immobilized on streptavidin-beads and incubated with purified recombinant GST-only or GST-Sec7 domain. Interacting complexes were eluted and analyzed by Western blotting using monoclonal anti-GST antibodies as described below. The loading controls for GST-only (lane 1) or GST-Sec7 (lane 2) are shown. […] The peptide pull-down assay was performed with peptides a2N-01 and a2N-03 immobilized on streptavidin-beads and incubated with purified recombinant GST-PH domain (5B) or GST-PB domain (5C). Interacting complexes were eluted and analyzed by Western blotting using monoclonal anti-GST antibodies. […]
These a2N-derived peptides were immobilized by an N-terminal biotin-tag, which ensured the same efficiency and equivalent binding to streptavidin-agarose beads. […] After washing beads four times in ice-cold binding buffer, the interacting complexes were eluted by boiling in SDS-PAGE sample buffer for 10 min at 95° C., resolved by SDS-PAGE and analyzed by Western blotting using monoclonal anti-GST antibody.

CSCC[C@H](NC(=O)CCCC[C@@H]1SC[C@@H]2NC(=O)N[C@@H]21)C(=O)NCC(=O)N[C@@H](CO)C(=O)N[C@@H](CC(C)C)C(=O)N[C@@H](Cc1ccccc1)C(=O)N[C@@H](CCCNC(=N)N)C(=O)N[C@@H](CO)C(=O)N[C@@H](CCC(=O)O)C(=O)N[C@@H](CO)C(=O)N[C@@H](CCSC)C(=O)N[C@@H](CS)C(=O)N[C@@H](CC(C)C)C(=O)N[C@@H](C)C(=O)N[C@@H](CCC(N)=O)C(=O)N[C@@H](CC(C)C)C(=O)N[C@@H](Cc1ccccc1)C(=O)N[C@@H](CC(C)C)C(=O)N[C@@H](CS)C(=O)O [a2N-01, Bio-MGSLFRSE SMCLAQLFL-Cys] (Biotin-MGSLFRSESMCLAQLFLC-OH; N-terminus and C-terminus assumed)
interaction with Sec7-domain of ARNO: interact; also recorded: specifically interacts
